Here are results for seven compounds from PMC9159852, “Synthesis, Structure, and Biologic Activity of Some Copper, Nickel, Cobalt, and Zinc Complexes with 2-Formylpyridine N^4-Allylthiosemicarbazone” (Bioinorganic Chemistry and Applications, 2022).

Series [1] has as its system Candida albicans (ATCC 10231). The arrangement: method as in PMID 25708540. The following applies: C. albicans, reference drug; cited from earlier work.
The test system of series [2] is human cervical epithelial (HeLa) cell line. As to the kind of experiment: Antiproliferative activity (MTS and Resazurin assays), HeLa. The format is cell-based. The following applies: for IC50: HeLa; for SI (selectivity index): IC50(MDCK)/IC50(HeLa). On the procedure: (§1) The antiproliferative activity of the studied substances was determined toward a series of cancer cell lines (HL-60 (ATCC CCL-240), BxPC-3 (ATCC CRL-1687), HeLa (ATCC CCL-2), RD (ATCC CCL-136)), and a normal cell line (MDCK (ATCC CCL-34)). These cell lines were cultured in accordance with the previously described method. Determination of the number of viable cells after cultivation in the presence of various concentrations of the studied substances was carried out by the MTS and Resazurin assays according to the previously described method. The 10-mM stock solutions of the studied compounds as well as the reference compound (doxorubicin) were prepared by dissolving 10 μmol of the corresponding compound in 1 mL of DMSO. The 0.1, 1, 10, and 100 μM solutions were prepared by dilution of the stock solutions with the corresponding medium and used for the study of antiproliferative activity.

Series [3] concerns Escherichia coli (ATCC 25922). As to the kind of experiment: Antibacterial activity, serial dilutions in liquid broth, E. coli. The series is classed as cell-based. The following applies: E. coli (G-). As for the experimental part: (§2) Antibacterial and antifungal properties of the studied substances were determined on a series of standard strains of Gram-positive microorganisms (Staphylococcus aureus (ATCC 25923)), Gram-negative microorganisms (Escherichia coli (ATCC 25922)), and fungi (Candida albicans (ATCC 10231)) using the method of serial dilutions in liquid broth. Stock solutions of the studied compounds as well as the reference compounds (furacillinum and nystatin) were prepared by dissolving 10 mg of the corresponding compound in 1 mL of DMSO. After that, the starting solutions (1 mg/mL) were prepared by tenfold dilution of the stock solution with nutrition medium (2% of peptonate bullion). The next dilutions were prepared by serial double dilution with the nutrition medium.

Series [4] concerns human leukemia HL-60 cell line. As to the kind of experiment: Antiproliferative activity (MTS and Resazurin assays), HL-60. The series is classed as cell-based. The following applies: for IC50: HL-60, Table 3; for SI (selectivity index): IC50(MDCK)/IC50(HL-60). On the procedure: as §1
Background: Formazan colour is commonly taken as a measure of viable cells.

Series [5] deals with human muscle rhabdomyosarcoma (RD) cell line. As to the kind of experiment: Antiproliferative activity (MTS and Resazurin assays), RD. The series is classed as cell-based. The following applies: for SI (selectivity index): IC50(MDCK)/IC50(RD); for IC50: RD. On the procedure: as §1
Series [6] deals with Candida albicans (ATCC 10231). Kind of series: Antifungal activity, serial dilutions in liquid broth, C. albicans. The series is classed as cell-based. On the procedure: as §2
A short description of series [7]: Antiradical activity, ABTS•+ method. The following applies: read-out: IC50 toward ABTS•+ radical cation. On the procedure:
The ABTS^•+ method was applied for the determination of antiradical activity of the studied substances. Standard solutions of ABTS^•+ radical cations and tested substances as well as the conditions of spectrophotometric measurements and calculations of inhibition were made as described. The 10-mM stock solutions of the studied compounds as well as the reference compound (trolox) were prepared by dissolving 10 μmol of the corresponding compound in 1 mL of DMSO. The 1, 10, 100, and 1000 μM solutions were prepared by the dilution of stock solutions with DMSO. After that, 20 μL of each tested compound solutions was transferred in a 96-well microtiter plate, and 180 μL of ABTS^•+ working solution was added to receive solutions with final concentrations of tested compounds 0.1, 1, 10, and 100, respectively.

Series [8] has as its system human epithelial pancreatic adenocarcinoma (BxPC-3) cell line. As to the kind of experiment: Antiproliferative activity (MTS and Resazurin assays), BxPC-3. The format is cell-based. The conditions noted are these: for IC50: BxPC-3; for SI (selectivity index): IC50(MDCK)/IC50(BxPC-3). On the procedure:
as §1

Series [9] deals with normal kidney epithelial (MDCK) cell line. As to the kind of experiment: Antiproliferative activity (MTS and Resazurin assays), MDCK normal cell line. The format is cell-based. On the procedure:
as §1

Series [10] relates to Staphylococcus aureus (ATCC 25923). As to the kind of experiment: Antibacterial activity, serial dilutions in liquid broth, S. aureus. The series is classed as cell-based. The conditions noted are these: S. aureus (G+). As for the experimental part: as §2
The next series relates to Daphnia magna. Kind of series: Acute toxicity assay against Daphnia magna. The following applies: 24 h exposure; for LC50: Daphnia magna. As for the experimental part: The general toxicity of the tested compounds was evaluated using Daphnia magna (Straus, 1820). Daphnia magna was originated from a culture maintained parthenogenetically at the Institute of Zoology (Laboratory of Systematics and Molecular Phylogeny).
The test design was based on ISO 6341 : 2012. The test-organisms Daphnia magna Straus were fed with Chlorella vulgaris. These unicellular algae were grown using aseptic technology to exclude contamination of the culture by bacteria, algae or protozoa. Chlorella vulgaris were cultivated in Prat's growth medium containing KNO3 (1 μM), MgSO4·7H2O (40 μM), K2HPO4·3H2O (400 μM), FeCl3·6H2O (3.6 μM) in H2O distilled (adjusted the pH to 7.0, autoclaved and stored at 5°C).
D. magna was maintained in aerated aqueous straw infusion growth media supplemented with CaCl2 ([…]), NaHCO3 (2.59 g/L), KCl (0.23 g/L), and MgSO4, 7H2O (4.93 g/L). (pH∼7.5 ± 0.2; O2 ≥ 6.0 mg/L).
Juveniles were selected according to their size and kept in fresh medium for 24 h. D. magna was cultured in Costar® 24-well culture clear sterile multiple well plates covered by a lid to prevent the possibility of contamination and evaporation but at the same time to allow gaseous exchange between air and culture medium. Each well contained 10 daphnids in 1000 μL final volume of each dilution of the tested compounds.
The bioassay was then repeated at the concentrations ranging from 0.1 to 100 μM (0.1, 1, 10, and 100 μM) in order to determine LC50 for each compound, including doxorubicin (the positive control). Aqueous straw infusion growth media was used to dilute the stock solutions to the required concentrations. […] A 0.1% solution of DMSO in aerated medium (pH∼7.5 ± 0.2; O2 ≥ 6.0 mg/L) was used as a negative control. Throughout the experiment, the juvenile daphnids were incubated at 22 ± 2 °C, using a 16 h/8 h light/dark cycle (500–1000 lx). The mobility (viability) of the test organisms was observed after the 24-h exposure. The experiment was performed in triplicate.
The percentage of viability (V (%)) of Daphnia magna was calculated according to the formula:(1) V%=Nsample/Ncontrol×100.
N - Number of viability of Daphnia magna.
The compounds median lethal concentration that kills 50% of the juvenile daphnids (LC50) values were calculated from the dose-response equation determined by the least squares fit method.

In series [11] the test system is Staphylococcus aureus (ATCC 25923). The arrangement: method as in PMID 25708540. The conditions noted are these: S. aureus (G+), reference drug; cited from earlier work.
In series [12] the test system is Escherichia coli (ATCC 25922). The arrangement: method as in PMID 25708540. The following applies: E. coli (G-), reference drug; cited from earlier work.
On the set-up of series [13]: method as in doi:10.1134/s1070363221010114. The conditions noted are these: standard antioxidant; read-out: IC50 toward ABTS•+ radical cation; cited from earlier work.

Values after ≈ are worked out from the molar mass of the structure shown. Read-outs that look alike come from different tables or passages of the source. A value given as a limit tells only on which side of the number the result lay.

For orientation: MFC means the smallest concentration meeting the test's criterion for killing the fungus. By MIC is commonly meant the smallest concentration in the dilution series that meets the test's criterion for growth inhibition. Broadly, the melting point is the temperature, or range, at which the solid turns liquid. Usually IC50 stands for the concentration that inhibits the measured activity by half. A word on the MBC: it is the lowest tested concentration that kills the bacteria rather than only halting them. The term LC50 denotes the concentration lethal to half of the exposed cells or organisms.

As to `C[C@@H]1[C@H](O)[C@@H](C)/C=C/C=C/CC/C=C/C=C/C=C/C=C/C(O[C@H]2O[C@H](C)[C@@H](O)[C@H](N)[C@@H]2O)CC2O[C@](O)(CC(O)C(O)CCC(O)CC(O)CC(O)CC(=O)O[C@H]1C)CC(O)C2C(=O)O` (stereo partly drawn) [Nystatin, nystatin], in [1], the MFC was 80 µg/mL (≈ 86.4 µM) and the MIC is 80 µg/mL (≈ 86.4 µM).
As for `C=CCNC(=S)NN=Cc1ccncc1`, the melting point is 163 to 165 °C.
Consider `C=CCNC(=NN=Cc1ccccn1)[S][Cu][Cl]` [compound 2, [Cu(L)Cl]], for which the IC50 in [2] is 400 ± 30 nM; in [4] it was 100 ± 60 nM; in series [5], 130 ± 20 nM; in series [7], more than 100000 nM; in series [8] it was 50 ± 20 nM; in series [9], 3000 ± 400 nM. Besides, the “SI (selectivity index)” value was 7.5 in [2], 30 in [4], 23 in series [5] and 60 in series [8]. Moreover, the MBC in series [3] worked out at 7.81 µg/mL; in [10], 0.244 µg/mL. Further, the MIC worked out at 3.91 µg/mL in series [3], 15.6 µg/mL in series [6] and 0.122 µg/mL in series [10]. The “Inhibition of cell proliferation, (%)” value came to 40.2 ± 2.8% in [4] (HL-60, 0.1 μM); 99.2 ± 0.2% in [4] (HL-60, 1 μM); 99.4 ± 0.6% in series [4] (HL-60, 10 μM). Further, in series [6], the MFC stood at 31.3 µg/mL. The “V, (%) percentage of viability of Daphnia magna” value in the series with Daphnia magna (0.1 μM) is recorded as 102.6 ± 0.0%; in the series on Daphnia magna (1 μM), 97.4 ± 7.3%; in the series on Daphnia magna (10 μM), 0.0%; in the series on Daphnia magna (100 μM), 0.0%. Moreover, the LC50 in the series on Daphnia magna came out at 3500 ± 2800 nM.
For the compound `C=CCNC(=NN=Cc1ccccn1)[S][Cu][O]C(C)=O.C=CCNC(=NN=Cc1ccccn1)[S][Cu][O]C(C)=O.O.O.O.O` [compound 4, [Cu2(L)2(CH3COO)2]·4H2O], the IC50 in series [2] amounted to 200 ± 20 nM; in series [4], 100 ± 20 nM; in series [5] it was 50 ± 10 nM; in series [7], 40300 ± 1800 nM; in series [8] it was 20 ± 10 nM; in series [9], 2000 ± 200 nM. In addition, the “SI (selectivity index)” value in [2] worked out at 10; in series [4], 20; in [5], 40; in series [8] it was 100. The MBC in [3] is 3.91 µg/mL; in series [10], 0.488 µg/mL. The results for the MIC in series [3], in series [6] and in series [10] were 1.95 µg/mL, 31.3 µg/mL and 0.244 µg/mL, respectively. The “Inhibition of cell proliferation, (%)” value is given as 32.0 ± 2.3% in series [4] (HL-60, 0.1 μM); 99.8 ± 0.2% in [4] (HL-60, 1 μM); 100.0 ± 0.2% in [4] (HL-60, 10 μM). This compound also came in with a minimum fungicidal concentration (MFC) in series [6] of 62.5 µg/mL. Further, the “V, (%) percentage of viability of Daphnia magna” value in the series with Daphnia magna (0.1 μM) is 76.9 ± 7.3%; in the series with Daphnia magna (1 μM) it was 66.7 ± 7.3%; with Daphnia magna (10 μM) it was 0.0%; in the series with Daphnia magna (100 μM) it was 0.0%. In the series with Daphnia magna, this compound had an LC50 of 1300 ± 500 nM.
Consider `C=CCNC(=S)NN=Cc1cccnc1`, for which the melting point lay within 180 to 182 °C.
With `NC(=O)N/N=C/c1ccc([N+](=O)[O-])o1` [Furacillinum, furacillinum], the MBC in series [11] was 9.3 µg/mL (≈ 46.9 µM); in series [12], 37.5 µg/mL (≈ 189 µM). Also, the MIC is 9.3 µg/mL (≈ 46.9 µM) in [11] and 18.5 µg/mL (≈ 93.4 µM) in [12].
`Cc1c(C)c2c(c(C)c1O)CCC(C)(C(=O)O)O2` (stereo not drawn) [Trolox, trolox]: the IC50 in series [13] was 33000 ± 700 nM.
